For one assay, the species on record is Homo sapiens. Nature of the assay: Selectivity for human LBD of ERbeta over human LBD of ERalpha.
Another assay deals with Estrogen receptor beta (Homo sapiens, UniProt Q92731).
The target of the next assay is T1, Estrogen receptor (Homo sapiens, UniProt P03372).
T1 sequence (P03372 whole entry): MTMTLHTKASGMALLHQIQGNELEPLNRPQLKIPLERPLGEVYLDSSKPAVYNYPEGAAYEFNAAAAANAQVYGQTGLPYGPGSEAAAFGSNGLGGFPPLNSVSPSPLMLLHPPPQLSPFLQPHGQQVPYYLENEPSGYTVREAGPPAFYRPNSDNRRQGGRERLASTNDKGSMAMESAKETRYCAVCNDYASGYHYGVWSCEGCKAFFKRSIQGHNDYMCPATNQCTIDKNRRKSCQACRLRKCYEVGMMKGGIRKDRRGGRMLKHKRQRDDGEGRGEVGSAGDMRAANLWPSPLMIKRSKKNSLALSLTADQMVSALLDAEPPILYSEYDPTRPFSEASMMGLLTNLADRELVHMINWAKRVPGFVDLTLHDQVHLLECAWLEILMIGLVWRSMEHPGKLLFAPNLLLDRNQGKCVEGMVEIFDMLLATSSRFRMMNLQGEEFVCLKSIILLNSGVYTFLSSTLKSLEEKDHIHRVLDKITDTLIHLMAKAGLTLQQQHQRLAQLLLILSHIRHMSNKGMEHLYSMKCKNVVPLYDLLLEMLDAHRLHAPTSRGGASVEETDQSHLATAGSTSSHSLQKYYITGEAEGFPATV

Bounds are passed on as bounds.

Chain of Estrogen receptor beta (Q92731 whole entry): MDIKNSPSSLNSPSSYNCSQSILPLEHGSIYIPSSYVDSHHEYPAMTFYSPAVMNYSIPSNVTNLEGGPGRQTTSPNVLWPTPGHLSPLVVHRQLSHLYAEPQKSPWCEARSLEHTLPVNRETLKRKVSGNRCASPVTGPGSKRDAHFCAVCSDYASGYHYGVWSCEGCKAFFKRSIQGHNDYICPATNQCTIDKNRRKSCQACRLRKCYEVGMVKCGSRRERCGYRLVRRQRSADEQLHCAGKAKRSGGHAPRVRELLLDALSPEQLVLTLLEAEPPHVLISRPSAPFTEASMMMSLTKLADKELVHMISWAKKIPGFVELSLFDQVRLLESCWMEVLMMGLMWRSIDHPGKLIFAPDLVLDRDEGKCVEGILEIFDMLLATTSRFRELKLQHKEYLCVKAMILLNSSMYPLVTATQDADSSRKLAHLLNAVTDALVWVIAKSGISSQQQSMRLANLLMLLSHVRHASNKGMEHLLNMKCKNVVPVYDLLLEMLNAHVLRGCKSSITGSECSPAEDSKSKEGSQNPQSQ
Description for Estrogen receptor beta: Inhibition of human LBD of ERbeta

As for `O=C1c2cc(O)cc(Br)c2C(=O)N1c1ccc(O)cc1`, the Ratio IC50 in the assay filed under Homo sapiens turned out to be 45. Further, the values for the concentration for half-maximal inhibition (IC50) against Estrogen receptor beta and against Estrogen receptor were 1.62 µM and 0.036 µM, respectively.
With `COc1ccc(N2C(=O)c3ccc(O)cc3C2=O)c(OC)c1`, the half-inhibitory concentration (IC50) was above 5 µM against Estrogen receptor beta and 2.47 µM against Estrogen receptor.
Regarding `O=C1c2ccc(O)cc2C(=O)N1c1ccc(O)cc1`, in the assay filed under Homo sapiens, the Ratio IC50 was 24. Also, the IC50 at Estrogen receptor beta is 1.98 µM; on Estrogen receptor, 0.084 µM.
Take `O=C1c2ccc(O)cc2C(=O)N1c1cc(O)cc(O)c1`: the half-inhibitory concentration (IC50) against Estrogen receptor beta and at Estrogen receptor was above 5 µM each time.
For the molecule `Cc1cc(O)ccc1N1C(=O)c2ccc(O)cc2C1=O`, the Ratio IC50 in the assay filed under Homo sapiens worked out at 4. For the same molecule, the IC50 against Estrogen receptor beta came out at 2.81 µM; on Estrogen receptor, 0.802 µM.
As to `O=C1c2ccc(O)cc2C(=O)N1c1cccc(O)c1`, the IC50 was above 5 µM at Estrogen receptor beta and 2.9 µM against Estrogen receptor.
As to `O=C1c2ccc(O)cc2C(=O)N1c1ccc(O)c2ccccc12`, the Ratio IC50 in the assay listed under Homo sapiens is 0.2. For the same molecule, the IC50 against Estrogen receptor beta stood at 0.56 µM; against Estrogen receptor, 2.64 µM.
In the case of `O=C1c2ccc(O)cc2C(=O)N1c1ccc(O)cc1F`, the Ratio IC50 in the assay listed under Homo sapiens was determined as 6. Moreover, the figures for the concentration for half-maximal inhibition (IC50) against Estrogen receptor beta and against Estrogen receptor were 0.339 µM and 0.053 µM, respectively.
Consider `O=C1c2ccc(O)cc2C(=O)N1c1ccc(O)cc1[N+](=O)[O-]`, for which, in the assay filed under Homo sapiens, the Ratio IC50 was 4. The concentration for half-maximal inhibition (IC50) at Estrogen receptor beta is 0.092 µM; against Estrogen receptor, 0.021 µM.
Regarding `O=C1c2ccc(O)cc2C(=O)N1[C@H]1CC[C@H](O)CC1`, the half-maximal inhibitory concentration (IC50) at Estrogen receptor beta and on Estrogen receptor was above 5 µM throughout.
As to `COc1cc(Br)c2c(c1)C(=O)N(c1ccc(O)cc1)C2=O`, the IC50 against Estrogen receptor beta and at Estrogen receptor was above 5 µM throughout.
On to `COc1ccc(N2C(=O)c3ccc(O)cc3C2=O)cc1`, for which the IC50 against Estrogen receptor beta was above 5 µM; against Estrogen receptor, 3.3 µM.
With `O=C1c2ccc(O)cc2C(=O)N1c1ccccc1`, the IC50 against Estrogen receptor beta is above 5 µM; against Estrogen receptor, 2.7 µM.
As for `COc1ccc(N2C(=O)c3ccc(O)cc3C2=O)c([N+](=O)[O-])c1`, the concentration for half-maximal inhibition (IC50) against Estrogen receptor beta and at Estrogen receptor was above 5 µM each time.
For `O=C1c2ccccc2C(=O)N1c1ccc(O)cc1`, the IC50 against Estrogen receptor beta and against Estrogen receptor was above 10 µM each time.
With `O=C1c2ccc(O)cc2C(=O)N1c1cccc2c(O)cccc12`, the Ratio IC50 in the assay listed under Homo sapiens turned out to be 4. For the same molecule, the values for the IC50 against Estrogen receptor beta and on Estrogen receptor were 2.81 µM and 0.802 µM, respectively.

For the origin of these results see ChEMBL document CHEMBL1146264, “Estrogen receptor beta ligands: design and synthesis of new 2-phenyl-isoindole-1,3-diones” (Bioorg Med Chem Lett, 2007).
